# System: 171881-019-R-J1-PDC complex spheroid viability
# Experiment: Anticancer human tumor 171881-019-R-J1-PDC patient-derived invasive breast carcinoma cell line growth inhibition
# Details: for IC50: curve of first compound; for viability, T/C: stronger effect = lower value
# From the text: Multicellular complex tumor spheroid response to LSD1 Inhibitor Iadademstat in combination with a variety of drugs and investigational agents in selected tumor cell lines
# The current study was undertaken to assess response to LSD1 inhibitors in combination with standard-of-care drugs and investigational agents in solid tumor complex spheroid models as well as in the K-562 leukemia. Complex spheroids include a stromal component modeled by human endothelial cells (HUVEC) and fibroblasts modeled by human mesenchymal stem cells (MSCs). The concentration ranges selected for each drug and investigational agent were based upon clinically achievable concentrations if the clinical Cmax of the agent was known.
# Compounds. The drugs and investigational agents used in this study are listed on Table 1. All of the agents used, including staurosporine (NSC755774) and gemcitabine (NSC613327), were obtained from the Developmental Therapeutics Program, NCI. FDA-approved anticancer drugs are available from the NCI at http://dtp.nci.nih.gov/branches/dscb/oncology_drugset_explanation.html. Drugs and investigational agents were >95% pure by proton nuclear magnetic resonance (NMR) and liquid chromatography/mass spectrometry (LC/MS). Stock solutions were prepared at 400x in DMSO, stored at -70 degrees C, and diluted in fresh medium prior to their use. The final concentration of DMSO in cell culture wells never exceeded 0.25% (v/v). The FDA-approved anticancer drug set is available from the Developmental Therapeutics Program at https://dtp.cancer.gov/organization/dscb/obtaining/available_plates.htm. All drugs and investigational agents were tested over a range starting from a high concentration at or near the clinical Cmax and decreasing in half-log increments. If the clinical Cmax for an agent had not been determined, the highest concentration tested was 10 microM.
# Cell Lines. The patient-derived cancer cell (PDC) lines: 292921-168-R-J2-PDC, K24384-001-R-PDC, and 521955-158-R2-J5-PDC pancreatic carcinomas, 556581-035-R-J1 ovarian carcinoma, 324938-238-R-J1-PDC, 855422-203-R-J1-PDC and 883617-216-R-J1-PDC urothelial bladder carcinomas, 743489-274-T-PDC renal cell carcinoma, 138582-R-J1 Merkel cell tumor, K60290-347-R-J1 and K57222-313-R-J1-PDC glioblastomas, 653999-131-R-J2-PDC, LG0703-F948-PDC, and 349418-098-R-PDC non-small cell lung carcinomas, 885512-296-R-J2-PDC, 171881-019-R-J1-PDC breast carcinomas and 186277-243-T-J2-PDC and 233499-124-R-J2-PDC colon carcinomas were obtained from the NCI Patient-Derived Models Repository (PDMR, https://pdmr.cancer.gov). The established cell lines NCI/ADR-RES (RRID:CVCL_14520 and OVCAR-5 (RRID:CVCL_1628) ovarian carcinomas, 786-O (RRID:CVCL_1051) and A498 (RRID:CVCL_A498) renal cell carcinoma, NCI-H211 (ATCC, cat. CRL-5824; RRID:CVCL_1529), NCI-H196 (ATCC, cat. CRL-5823, RRID:CVCL_1509), SW 1271 (ATCC, cat. CRL-2177, RRID:CVCL_1716) and NCI-H1876 (ATCC, cat. CRL-5902, RRID:CVCL_1503) small cell lung carcinomas, MDA-MB-231 (RRID:CVCL_0062) and MDA-MB-468 (RRID:CVCL_0419)breast carcinomas (10-12). Pooled donor human umbilical vein endothelial cells (HUVEC, Lonza, cat. CC-2519) and human mesenchymal stem cells (hMSC, Lonza, cat. PT-2501) were purchased from Lonza (Walkersville, MD).
# Cell Culture. All cells were maintained in an incubator at 37 degrees C and 5% CO2 with 95% humidity. The PDC lines were cultured according to standard operating procedures established by the NCI PDMR (https://pdmr.cancer.gov). Briefly all PDCs were thawed and cultured in Matrigel-coated flasks prepared with a working solution of 1X Ham's F-12 nutrient mix, without supplementation (Invitrogen, Waltham, MA, cat. 11765054), 100 U/mL penicillin-streptomycin (Invitrogen, cat. 15140122), and 2.5% Matrigel (Corning Inc., Corning, NY, cat. 354248) for the first three passages. […]
# [1] = second compound 0.1 µM, first compound 0.00316 µM
# [2] = second compound 0.1 µM, first compound 0.01 µM
# [3] = second compound 0.1 µM, first compound 0.0316 µM
# [4] = second compound 0.1 µM, first compound 0.1 µM
# [5] = second compound 0.316 µM, first compound 0.00316 µM
# [6] = second compound 0.316 µM, first compound 0.01 µM
# [7] = second compound 0.316 µM, first compound 0.0316 µM
# [8] = second compound 0.316 µM, first compound 0.1 µM
# [9] = second compound 1 µM, first compound 0.00316 µM
# [10] = second compound 1 µM, first compound 0.01 µM
# [11] = second compound 1 µM, first compound 0.0316 µM
# [12] = second compound 1 µM, first compound 0.1 µM
# [13] = second compound 3.16 µM, first compound 0.00316 µM
# [14] = second compound 3.16 µM, first compound 0.01 µM
# [15] = second compound 3.16 µM, first compound 0.0316 µM
# [16] = second compound 3.16 µM, first compound 0.1 µM
# [17] = second compound 10 µM, first compound 0.00316 µM
# [18] = second compound 10 µM, first compound 0.01 µM
# [19] = second compound 10 µM, first compound 0.0316 µM
# [20] = second compound 10 µM, first compound 0.1 µM
# 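Also: spheroids exposed to agents for 7 days after 3 days growth.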
compound,measurement,setting,value
CC[C@@]1(O)C(=O)OCc2c1cc1n(c2=O)Cc2cc3c(CN(C)C)c(O)ccc3nc2-1 + NC1CC1c1ccc(-c2cccc(O)c2)cc1,IC50,second compound 0.1 µM,71.1 nM
same,IC50,second compound 0.316 µM,80.4 nM
same,IC50,second compound 1 µM,36.6 nM
same,IC50,second compound 3.16 µM,37.4 nM
same,IC50,second compound 10 µM,21 nM
same,"viability, T/C","second compound 0.1 µM, first compound 0.000316 µM",103%
same,"viability, T/C","second compound 0.1 µM, first compound 0.001 µM",104%
same,"viability, T/C",[1],84.4%
same,"viability, T/C",[2],68.9%
same,"viability, T/C",[3],64.3%
same,"viability, T/C",[4],44.2%
same,"viability, T/C","second compound 0.316 µM, first compound 0.000316 µM",108%
same,"viability, T/C","second compound 0.316 µM, first compound 0.001 µM",107%
same,"viability, T/C",[5],87.8%
same,"viability, T/C",[6],70.5%
same,"viability, T/C",[7],61.9%
same,"viability, T/C",[8],46.4%
same,"viability, T/C","second compound 1 µM, first compound 0.000316 µM",103%
same,"viability, T/C","second compound 1 µM, first compound 0.001 µM",105%
same,"viability, T/C",[9],90.7%
same,"viability, T/C",[10],70.3%
same,"viability, T/C",[11],53.2%
same,"viability, T/C",[12],39.6%
same,"viability, T/C","second compound 3.16 µM, first compound 0.000316 µM",101%
same,"viability, T/C","second compound 3.16 µM, first compound 0.001 µM",96.7%
same,"viability, T/C",[13],90.5%
same,"viability, T/C",[14],66.8%
same,"viability, T/C",[15],55.9%
same,"viability, T/C",[16],33.6%
same,"viability, T/C","second compound 10 µM, first compound 0.000316 µM",90.1%
same,"viability, T/C","second compound 10 µM, first compound 0.001 µM",85.3%
same,"viability, T/C",[17],78.9%
same,"viability, T/C",[18],57.3%
same,"viability, T/C",[19],47%
same,"viability, T/C",[20],37.4%
COc1cc(C2c3cc4c(cc3C(OC3OC5COC(C)OC5C(O)C3O)C3COC(=O)C23)OCO4)cc(OC)c1O (stereo not given) + NC1CC1c1ccc(-c2cccc(O)c2)cc1,IC50,second compound 0.1 µM,753 nM
same,IC50,second compound 0.316 µM,1010 nM
same,IC50,second compound 1 µM,793 nM
same,IC50,second compound 3.16 µM,554 nM
same,IC50,second compound 10 µM,406 nM
same,"viability, T/C","second compound 0.1 µM, first compound 0.00949 µM",102%
same,"viability, T/C","second compound 0.1 µM, first compound 0.03 µM",97%
same,"viability, T/C","second compound 0.1 µM, first compound 0.0949 µM",74%
same,"viability, T/C","second compound 0.1 µM, first compound 0.3 µM",64%
same,"viability, T/C","second compound 0.1 µM, first compound 0.949 µM",48.3%
same,"viability, T/C","second compound 0.1 µM, first compound 3 µM",29.2%
same,"viability, T/C","second compound 0.316 µM, first compound 0.00949 µM",105%
same,"viability, T/C","second compound 0.316 µM, first compound 0.03 µM",101%
same,"viability, T/C","second compound 0.316 µM, first compound 0.0949 µM",80.8%
same,"viability, T/C","second compound 0.316 µM, first compound 0.3 µM",69.6%
same,"viability, T/C","second compound 0.316 µM, first compound 0.949 µM",51.4%
same,"viability, T/C","second compound 0.316 µM, first compound 3 µM",33.3%
same,"viability, T/C","second compound 1 µM, first compound 0.00949 µM",105%
same,"viability, T/C","second compound 1 µM, first compound 0.03 µM",95.3%
same,"viability, T/C","second compound 1 µM, first compound 0.0949 µM",84.9%
same,"viability, T/C","second compound 1 µM, first compound 0.3 µM",66.4%
same,"viability, T/C","second compound 1 µM, first compound 0.949 µM",46.9%
same,"viability, T/C","second compound 1 µM, first compound 3 µM",28.1%
same,"viability, T/C","second compound 3.16 µM, first compound 0.00949 µM",103%
same,"viability, T/C","second compound 3.16 µM, first compound 0.03 µM",99.9%
same,"viability, T/C","second compound 3.16 µM, first compound 0.0949 µM",78.7%
same,"viability, T/C","second compound 3.16 µM, first compound 0.3 µM",59%
same,"viability, T/C","second compound 3.16 µM, first compound 0.949 µM",43.6%
same,"viability, T/C","second compound 3.16 µM, first compound 3 µM",27.9%
same,"viability, T/C","second compound 10 µM, first compound 0.00949 µM",84.3%
same,"viability, T/C","second compound 10 µM, first compound 0.03 µM",78.2%
same,"viability, T/C","second compound 10 µM, first compound 0.0949 µM",69.1%
same,"viability, T/C","second compound 10 µM, first compound 0.3 µM",51.3%
same,"viability, T/C","second compound 10 µM, first compound 0.949 µM",41.4%
same,"viability, T/C","second compound 10 µM, first compound 3 µM",27.4%
Nc1ncn(C2CC(O)C(CO)O2)c(=O)n1 (stereo not given) + NC1CC1c1ccc(-c2cccc(O)c2)cc1,IC50,second compound 0.1 µM,> 1000 nM
same,IC50,second compound 0.316 µM,> 1000 nM
same,IC50,second compound 1 µM,> 1000 nM
same,IC50,second compound 3.16 µM,> 1000 nM
same,IC50,second compound 10 µM,> 1000 nM
same,"viability, T/C",[1],102%
same,"viability, T/C",[2],98.4%
same,"viability, T/C",[3],97.7%
same,"viability, T/C",[4],88.4%
same,"viability, T/C","second compound 0.1 µM, first compound 0.316 µM",93.8%
same,"viability, T/C","second compound 0.1 µM, first compound 1 µM",85.1%
same,"viability, T/C",[5],102%
same,"viability, T/C",[6],98.6%
same,"viability, T/C",[7],95.1%
same,"viability, T/C",[8],96.2%
same,"viability, T/C","second compound 0.316 µM, first compound 0.316 µM",90.8%
same,"viability, T/C","second compound 0.316 µM, first compound 1 µM",90.4%
same,"viability, T/C",[9],106%
same,"viability, T/C",[10],102%
same,"viability, T/C",[11],95%
same,"viability, T/C",[12],96.3%
same,"viability, T/C","second compound 1 µM, first compound 0.316 µM",92.6%
same,"viability, T/C","second compound 1 µM, first compound 1 µM",85.1%
same,"viability, T/C",[13],102%
same,"viability, T/C",[14],96%
same,"viability, T/C",[15],95.8%
same,"viability, T/C",[16],96%
same,"viability, T/C","second compound 3.16 µM, first compound 0.316 µM",87%
same,"viability, T/C","second compound 3.16 µM, first compound 1 µM",82.1%
same,"viability, T/C",[17],82.4%
same,"viability, T/C",[18],80.6%
same,"viability, T/C",[19],81.4%
same,"viability, T/C",[20],81%
same,"viability, T/C","second compound 10 µM, first compound 0.316 µM",80%
same,"viability, T/C","second compound 10 µM, first compound 1 µM",74.8%
